In ChEMBL document CHEMBL5149976, “β-Carbolines as potential anticancer agents” (Eur J Med Chem, 2021):
≈ marks a conversion by molar mass, not a printed value.

Columns and labels:
[1] = Anti-ferroptotic activity against human BJeLR cells assessed as cell growth inhibition; assay type: functional, cell-based
Calu-1 = assay: Anti-ferroptotic activity against human Calu-1 cells assessed as cell growth inhibition; assay type: functional, cell-based
[2] = tested on: Panel NCI-60 (60 carcinoma cell lines); assay: Cytotoxicity against human Panel NCI-60 (60 carcinoma cell lines) assessed as cell growth inhibition; assay type: functional, cell-based
CCRF S-180 = assay: Antitumor activity against mouse CCRF S-180 cells allografted in ICR mouse assessed as tumor growth inhibition at 0.1 micromol/kg, iv administered for 7 days relative to control; assay type: functional; conditions: dose 0.1 µmol/kg, time 7 day
L5178Y = assay: Cytotoxicity against mouse L5178Y cells assessed as cell growth inhibition; assay type: functional, cell-based
L1210 [3] = assay: Cytotoxicity against mouse L1210 cells assessed as cell growth inhibition; assay type: functional, cell-based
HOP-92 = assay: Anticancer activity against human HOP-92 cells; assay type: functional
M14 = assay: Anticancer activity against human M14 cells; assay type: functional
HT-29 [4] = assay: Anticancer activity against human HT-29 cells; assay type: functional
UACC-62 = assay: Anticancer activity against human UACC-62 cells; assay type: functional
MDA-MB-231 = assay: Anticancer activity against human MDA-MB-231 cells; assay type: functional
OVCAR-3 [5] = assay: Anticancer activity against human OVCAR-3 cells; assay type: functional
P388 [6] = assay: Cytotoxicity against mouse P388 cells; assay type: functional, cell-based; conditions: read-out: ED50 (the source's name)
L1210 [7] = assay: Cytotoxicity against mouse L1210 cells; assay type: functional; conditions: read-out: ED50 (the source's name)
MT4 = assay: Cytotoxicity against human MT4 cells; assay type: functional; conditions: read-out: ED50 (the source's name)
MOLT-4F = assay: Cytotoxicity against human MOLT-4F cells; assay type: functional; conditions: read-out: ED50 (the source's name)
HeLa [8] = assay: Cytotoxicity against human HeLa cells assessed as cell growth inhibition; assay type: functional, cell-based
MCF7 = assay: Cytotoxicity against human MCF7 cells assessed as cell growth inhibition; assay type: functional, cell-based
[9] = molecular target: DNA topoisomerase 1 (Homo sapiens) (UniProt P11387); assay: Inhibition of topoisomerase 1 (unknown origin) assessed as relaxation of pBR322 plasmid DNA and incubated for 10 mins
Chain of DNA topoisomerase 1 (Homo sapiens) (P11387 whole entry): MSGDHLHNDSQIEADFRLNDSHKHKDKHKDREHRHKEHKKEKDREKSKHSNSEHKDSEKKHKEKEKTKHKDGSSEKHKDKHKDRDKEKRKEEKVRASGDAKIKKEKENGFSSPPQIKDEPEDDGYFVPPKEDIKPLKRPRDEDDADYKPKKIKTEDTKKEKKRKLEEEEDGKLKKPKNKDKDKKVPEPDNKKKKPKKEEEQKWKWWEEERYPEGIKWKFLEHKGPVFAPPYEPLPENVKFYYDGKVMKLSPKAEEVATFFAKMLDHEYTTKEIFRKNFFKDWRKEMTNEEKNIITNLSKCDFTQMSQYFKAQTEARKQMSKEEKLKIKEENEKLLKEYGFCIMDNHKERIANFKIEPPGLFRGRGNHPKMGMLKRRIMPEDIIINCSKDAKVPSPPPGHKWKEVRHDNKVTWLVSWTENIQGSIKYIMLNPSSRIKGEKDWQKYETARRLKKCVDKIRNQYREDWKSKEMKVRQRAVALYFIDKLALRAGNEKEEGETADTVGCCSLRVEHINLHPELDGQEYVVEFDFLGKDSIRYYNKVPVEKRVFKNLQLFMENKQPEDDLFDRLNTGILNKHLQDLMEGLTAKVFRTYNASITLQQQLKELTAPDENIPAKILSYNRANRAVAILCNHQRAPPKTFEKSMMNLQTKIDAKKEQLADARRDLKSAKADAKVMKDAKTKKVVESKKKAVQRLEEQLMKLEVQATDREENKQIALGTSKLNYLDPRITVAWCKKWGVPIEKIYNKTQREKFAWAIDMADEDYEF

A549 [10] = assay: Cytotoxicity against human A549 cells assessed as cell growth inhibition and measured after 5 hrs by MTT assay; assay type: functional, cell-based; conditions: A549, 5 h
HT-29 [11] = assay: Cytotoxicity against human HT-29 cells assessed as cell growth inhibition and measured after 5 hrs by MTT assay; assay type: functional, cell-based; conditions: HT-29, 5 h
P388 [12] = assay: Cytotoxicity against mouse P388 cells assessed as cell growth inhibition and measured after 5 hrs by MTT assay; assay type: functional, cell-based; conditions: P388, 5 h
[13] = Cytotoxicity against human KB-16 cells assessed as cell growth inhibition and measured after 5 hrs by MTT assay; assay type: functional, cell-based; conditions: KB16, 5 h
NCI-H1299 = assay: Cytotoxicity against human NCI-H1299 cells assessed as cell growth inhibition; assay type: functional, cell-based
Calf thymus DNA [14] = assay: Stabilization of calf thymus DNA assessed as change in melting temperature; assay type: nucleic-acid assay; conditions: Bos taurus
Calf thymus DNA [15] = assay: Binding affinity to calf thymus DNA assessed as binding constant by spectrophotometric analysis; assay type: nucleic-acid assay; conditions: Bos taurus
A549 [16] = assay: Cytotoxicity against human A549 cells assessed as cell growth inhibition by MTT assay; assay type: functional, cell-based
B16 = assay: Cytotoxicity against mouse B16 cells assessed as cell growth inhibition by MTT assay; assay type: functional, cell-based
KB = assay: Cytotoxicity against human KB cells; assay type: functional, cell-based
DU-145 = assay: Cytotoxicity against human DU-145 cells assessed as cell growth inhibition by MTT assay; assay type: functional, cell-based; conditions: pooled result: one value given for 5 cell lines, strains, targets or settings
HT-29 [17] = assay: Cytotoxicity against human HT-29 cells assessed as inhibition of cell growth measured after 48 hrs by MTT assay; assay type: functional, cell-based; conditions: HT-29, 48 h
HGC-27 = assay: Cytotoxicity against human HGC-27 cells assessed as inhibition of cell growth measured after 48 hrs by MTT assay; assay type: functional, cell-based; conditions: HGC-27, 48 h
OVCAR-3 [18] = assay: Cytotoxicity against human OVCAR-3 cells assessed as cell growth inhibition and measured after 48 hrs; assay type: functional, cell-based; conditions: OVCAR-3, 48 h
PC-3 = assay: Cytotoxicity against human PC-3 cells assessed as cell growth inhibition and measured after 48 hrs; assay type: functional, cell-based; conditions: PC-3, 48 h
U-251 = assay: Cytotoxicity against human U-251 cells assessed as cell growth inhibition and measured after 48 hrs; assay type: functional, cell-based; conditions: U-251, 48 h
[19] = In vivo antitumor activity against mouse Lewis lung carcinoma cells xenografted in mouse model assessed as inhibition of cell growth relative to control; assay type: functional
LoVo = assay: Cytotoxicity against human LoVo cells assessed as cell growth inhibition; assay type: functional, cell-based
A-375 = assay: Cytotoxicity against human A-375 cells assessed as cell growth inhibition; assay type: functional, cell-based
HepG2 = assay: Cytotoxicity against human HepG2 cells assessed as cell growth inhibition and measured after 24 hrs by MTT assay; assay type: functional, cell-based; conditions: HepG2, 24 h
HeLa [20] = assay: Cytotoxicity against human HeLa cells assessed as cell growth inhibition and measured after 24 hrs by MTT assay; assay type: functional, cell-based
RPMI-8226 = assay: Cytotoxicity against human RPMI-8226 cells assessed as cell growth inhibition; assay type: functional, cell-based
CCRF-CEM = assay: Cytotoxicity against human CCRF-CEM cells assessed as cell growth inhibition; assay type: functional, cell-based
[21] = Cytotoxicity against mouse C19 cells assessed as cell growth inhibition by MTT assay; assay type: functional, cell-based

## COC(=O)c1ccc([C@H]2c3[nH]c4ccccc4c3C[C@H](C(=O)OC)N2C(=O)CCl)cc1
[1]
  IC50: 2000 nM
Calu-1
  IC50: 20 nM

## O=Cc1cc2c([nH]c3ccccc32)c(-c2ccccc2)n1
[2]
  IC50: 360 nM

## COc1ccc2nc(-c3cc4c([nH]c5ccccc54)c(-c4ccc(F)c(F)c4)n3)[nH]c2c1
[2]
  IC50: 1900 nM

## COc1cc(-c2nc(C(=O)N[C@@H](Cc3c[nH]c4ccccc34)C(=O)N[C@@H](Cc3c[nH]c4ccccc34)C(=O)N[C@@H](CO)C(=O)OCc3ccccc3)cc3c2[nH]c2ccccc23)ccc1O
CCRF S-180
  TGI: 62.9%

## Cc1ccc(C[C@H](N)[C@@H]2NCCc3c2[nH]c2ccc(Br)cc32)cc1
L5178Y
  IC50: 3100 nM
L1210 [3]; Mus musculus, L1210
  IC50: 3100 nM
L1210 [3]; l1210
  IC50: 3400 nM

## CCN(CC)CCCNc1nccc2c1[nH]c1ccccc12
HOP-92
  GI50: 380 nM
M14
  GI50: 2000 nM
HT-29 [4]
  GI50: 2700 nM
UACC-62
  GI50: 2300 nM
MDA-MB-231
  GI50: 5200 nM
OVCAR-3 [5]
  GI50: 1600 nM

## CNC(CSC)c1nccc2c1[nH]c1ccc(O)c(Br)c12 (stereo not given)
L5178Y
  IC50: 1800 nM
L1210 [3]; Mus musculus, L1210
  IC50: 1800 nM
L1210 [3]; l1210
  IC50: 2400 nM

## NC1CSCON2CCC3c4ccccc4NC3C12 (stereo not given)
P388 [6]
  EC50: 5 nM
L1210 [7]
  EC50: 5 nM
MT4
  EC50: 5 nM
MOLT-4F
  EC50: 5 nM

## COc1ccc(-c2nc(-c3nc4ccc(F)cc4[nH]3)cc3c2[nH]c2ccccc23)cc1
[2]
  IC50: 1900 nM

## COC(=O)[C@@H]1Cc2c([nH]c3ccccc23)[C@@H](c2ccccc2)N1
[2]
  IC50: 360 nM

## COc1ccccc1-c1c(-c2ccccc2)ncc2[nH]c3ccccc3c12
HeLa [8]
  IC50: 35600 nM
MCF7
  IC50: 35300 nM

## Cc1nccc2c1[nH]c1ccccc12
[9]
  ED50: 23.8 µg/mL (≈ 131 µM)

## COc1ccc2c(c1)C1CCN3OCSCC(N)C3C1N2 (stereo not given)
P388 [6]
  EC50: < 5 nM
L1210 [7]
  EC50: < 5 nM
MT4
  EC50: < 5 nM
MOLT-4F
  EC50: < 5 nM

## CCn1c2ccccc2c2cc(C3NCCc4c3[nH]c3ccccc43)ccc21 (stereo not given)
A549 [10]
  IC50: < 0.001 µg/mL
HT-29 [11]
  IC50: < 0.001 µg/mL
P388 [12]
  IC50: < 0.001 µg/mL
[13]
  IC50: < 0.001 µg/mL

## c1ccc2c(c1)[nH]c1c(CNCCOCCNCc3nccc4c3[nH]c3ccccc34)nccc12
NCI-H1299
  IC50: 1600 nM

## NCCCCNC(=O)c1cc2c(cn1)[nH]c1ccccc12
Calf thymus DNA [14]
  ΔTm: 5.7 °C
Calf thymus DNA [15]
  K: 4.5 10^4/M

## COc1ccc(-c2c(-c3ccccc3)ncc3[nH]c4ccccc4c23)cc1
HeLa [8]
  IC50: 33600 nM
MCF7
  IC50: 20800 nM

## O=C(/C=C/C1Cc2c([nH]c3ccccc23)C(c2ccc(F)cc2)N1)c1ccc(F)cc1 (stereo not given)
A549 [16]
  IC50: 5650 nM
B16
  IC50: 7340 nM

## Oc1ccc2[nH]c3c(C4=C[C@@]5(O)CC/C=C\CCCCN6CC[C@@H]4[C@]4(C[C@@H]7/C=C\CCCCN7[C@H]45)C6)nccc3c2c1 [MANZAMINE Y]
KB
  IC50: 2500 nM
L1210 [3]; Mus musculus, L1210
  IC50: 1500 nM

## Fc1ccc(-c2nc(-c3nc4ccc(Cl)cc4[nH]3)cc3c2[nH]c2ccccc23)cc1
[2]
  IC50: 1900 nM

## CC(=O)N1N=C(c2ccco2)CC1c1cc2c([nH]c3ccccc32)c(-c2ccc(F)cc2)n1 (stereo not given)
A549 [16]
  IC50: 1940 nM
DU-145
  IC50: 1940 nM

## COc1cc(-c2nc(Cn3cc(CN4C(=O)c5ccc(C)cc5C4=O)nn3)cc3c2[nH]c2ccccc23)cc(OC)c1OC
HT-29 [17]
  IC50: 3670 nM
HGC-27
  IC50: < 10000 nM

## COc1cccc2c1C(=O)c1c(O)c3c(c(O)c1C2=O)C[C@@](O)(C(=O)CO)C[C@@H]3O[C@H]1C[C@H](N)[C@H](O)[C@H](C)O1.Cl [DOXORUBICIN HYDROCHLORIDE]
CCRF S-180
  TGI: 61.1%

## O[C@]12C=C(C3=NCCc4c3[nH]c3ccccc43)[C@@H]3CCN(CCCC/C=C\CC1)C[C@@]31C[C@@H]3/C=C\CCCCN3[C@H]12 [3,4-DIHYDROMANZAMINE A]
KB
  IC50: 610 nM
L1210 [3]; Mus musculus, L1210
  IC50: 4800 nM

## c1ccc2c(c1)[nH]c1cnccc12
[9]
  ED50: 34.4 µg/mL (≈ 205 µM)

## c1ccc(-c2nc(-c3nc4ccccc4[nH]3)cc3c2[nH]c2ccccc23)cc1
[2]
  IC50: 360 nM

## COc1ccc(-c2nc(C3=N/C(=C\c4ccccc4)C(=O)O3)cc3c2[nH]c2ccccc23)cc1
OVCAR-3 [18]
  IC50: 1070 nM
PC-3
  IC50: 1500 nM
U-251
  IC50: 480 nM

## CCCCn1c2ccccc2c2ccnc(C(=O)OCCCCCCOC(=O)c3nccc4c5ccccc5n(CCCC)c34)c21
[19]
  inhibition (INH): 64.2%

## CCN(CC)c1ccc(C2NCCc3c2[nH]c2ccccc32)cc1 (stereo not given)
A549 [10]
  IC50: 0.07 µg/mL (≈ 0.219 µM)
HT-29 [11]
  IC50: 0.07 µg/mL (≈ 0.219 µM)
P388 [12]
  IC50: 0.07 µg/mL (≈ 0.219 µM)
[13]
  IC50: 0.07 µg/mL (≈ 0.219 µM)

## CCCCc1nc(C(=O)O)cc2c1[nH]c1ccccc12
LoVo
  IC50: 11000 nM

## c1ccc2c(c1)[nH]c1c(CNCCOCCOCCNCc3nccc4c3[nH]c3ccccc34)nccc12
A-375
  IC50: 2000 nM

## COC(=O)c1cc2c([nH]c3ccccc32)c(-c2ccc(OCc3cn(-c4cccc(Cl)c4Cl)nn3)cc2)n1
HepG2
  IC50: 32000 nM
HeLa [20]
  IC50: 46000 nM

## COc1ccc(-c2nc(-c3nc4ccc(OC)cc4[nH]3)cc3c2[nH]c2ccccc23)cc1
RPMI-8226
  IC50: 360 nM
[2]
  IC50: 1900 nM
CCRF-CEM
  IC50: 880 nM

## Cn1c2cnccc2c2c(Br)c(O)ccc21
L5178Y
  IC50: 420 nM
L1210 [3]; Mus musculus, L1210
  IC50: 420 nM
L1210 [3]; l1210
  IC50: 360 nM

## c1ccc2c(-c3nccc4c3[nH]c3ccccc34)c[nH]c2c1
[21]
  IC50: 15600 nM

## CC[C@H](C)[C@H](NC(=O)[C@H](Cc1c[nH]c2ccccc12)NC(=O)[C@H](Cc1c[nH]c2ccccc12)NC(=O)c1cc2c([nH]c3ccccc32)c(-c2ccc(O)c(OC)c2)n1)C(=O)OCc1ccccc1
CCRF S-180
  TGI: 63.4%

## O=C(/C=C/c1cc2c([nH]c3ccccc32)c(-c2ccc(F)cc2)n1)c1ccco1
A549 [16]
  IC50: 1860 nM
DU-145
  IC50: 1860 nM
